Laboratory results from patent publication US20210253518A1, “KINASE INHIBITOR” (NISSAN CHEMICAL CORPORATION, priority 2018, published 2021).
Read-outs that look alike come from different tables or passages of the source.

Key:
PKACβ = PKACβ (Homo sapiens, UniProt P22694); test: Off-chip Mobility Shift Assay (MSA method), kinase inhibition; type: biochemical; conditions: for inhibition at 0.1 µM: read-out: inhibition (%) PKACβ
Method: For compound k-1:B-1, inhibitory activity evaluation (calculation of 50% inhibitory concentration (IC50)) was performed on 8 kinds of kinases (CGK2, LATS2, MSK1, p70S6K, PKACα, PKACβ, SGK2, SGK3). The activity was measured using the Off-chip Mobility Shift Assay (MSA method) described below. The compound was added such that the test concentration of k-1:B-1 was in 10 steps from the final concentration of 10 μM to 0.3 nM.
As an analysis method of the data, the mean signal of the control well containing all reaction components was set to 0% inhibition, the mean signal without enzyme addition was set to 100% inhibition, and the inhibition rate was calculated from the mean signal of 2 wells of each test substance test. The IC50 value was obtained by approximating a plot based on the test substance concentration and inhibition rate to a 4 parameter logistics curve by using the Excel Solver add-in and by the non-linear least squares method.
(§1) 5 μL of k-1:B-1 solution at 4-fold concentration, 5 μL of substrate/ATP/metal solution at 4-fold concentration, and 10 μL of kinase solution at 2-fold concentration, each prepared with assay buffer (20 mM HEPES, 0.01% Triton X-100, 2 mM DTT, pH 7.5), were mixed in the wells of a polypropylene 384-well plate and reacted at room temperature for 1 or 5 hr. Successively, 70 μL of Termination Buffer (QuickScout Screening Assist MSA; Carna Biosciences) was added to discontinue the reaction. Then, the substrate peptide and the phosphorylated peptide in the reaction solution were separated and quantified by the LabChip system (Perkin Elmer). The kinase reaction was evaluated by the resultant product ratio (P/(P+S)) calculated from the substrate peptide peak height (S) and the phosphorylated peptide peak height (P).
For compounds k-1:H-7, k-1:H-1, k-1:D-1, k-1:J-1, and k-1:B-1, inhibitory rate at 100 nM was calculated on 8 kinds of kinases (CGK2, LATS2, MSK1, p70S6K, PKACα, PKACβ, SGK2, SGK3). The activity was measured using the MSA method. As an analysis method of the data, the mean signal of the control well containing all reaction components was set to 0% inhibition, the mean signal without enzyme addition was set to 100% inhibition, and the inhibition rate was calculated from the mean signal of 2 wells of each test substance test.
as §1, with “a compound” for “k-1:B-1”

[1] = test system: YAP (phospho-S127 and total); test: YAP phosphorylation inhibitory action in SKOV3 cells (HTRF, YAP-total kit / YAP phospho-S127 kit); type: cell-based, human; conditions: 10 μM, 1 hr, Non-treatment as 100%
Method: Human ovarian cancer cell line SKOV3 (manufactured by DS Pharma Biomedical Co., Ltd) was precultured (single layer culture) in a 15% FBS-containing McCoy's 5a medium (manufactured by Sigma Ltd. Aldrich). The above-mentioned cells in the logarithmic growth phase were washed with PBS, a 0.25% (w/v) trypsin-1 mmol/L ethylenediaminetetraacetic acid (EDTA) solution (manufactured by Fujifilm Wako Pure Chemical Corporation) was added, and adherent cells were detached by incubating at 37° C. for 3 min. The above-mentioned medium was added and the mixture was centrifuged and resuspended in the same medium.
According to the method of patent document (WO 2014/017513), a composition of 10% FBS-containing DMEM medium (Phenol-red free, manufactured by FUJIFILM Wako Pure Chemical Corporation) containing 0.015% (w/v) deacylated gellan gum (KELCOGEL CG-LA, manufactured by SANSHO Co., Ltd.) was prepared using FCeM-series Preparation Kit (manufactured by FUJIFILM Wako Pure Chemical Corporation). Then, various cells prepared above were suspended in the above-mentioned medium composition (3D conditions) added with deacylated gellan gum or a medium without the addition (2D conditions), and seeded on a 50 μL/well (manufactured by Corning Incorporated, 96 well flat bottom plate, #3585, 2D conditions) or 25 μL/well (manufactured by Corning Incorporated, 96 well low adhesion flat bottom plate, #3474) at 100000 cells/well. The plate was allowed to stand at 37° C. in a 5% CO2 incubator, and the compound of the present invention diluted with the medium at 2 or 6 times the final concentration, DMSO, or the medium alone was added to the plate 3 hr after the seeding at 50 μL/well (2D conditions) or 5 μL/well (3D conditions) to make the final concentration of each compound 10 μM. After culture at 37° C. in a 5% CO2 incubator for 1 hr, the supernatant was aspirated, supplemented Lysis buffer (1-fold concentration, manufactured by Cisbio, YAP-total kit or YAP phospho-S127 kit) (50 μL) was added under 2D conditions, and supplemented Lysys buffer (4-fold concentration) (10 μL) was added to the culture supernatant under 3D conditions, and the mixture was stirred by a plate shaker for 30 min. Thereafter, the plate was centrifuged, 16 μL of the supernatant was transferred to a 384-well white plate (Corning, #4512), and each antibody solution (pYAP d2 antibody or Total-YAP d2 antibody, and pYAP Cryptate antibody or Total-YAP Cryptate antibody) included in the kit was added at 4 μL/well in total, and the mixture was allowed to stand at room temperature overnight. As a blank control, pYAP Cryptate antibody or Total-YAP Cryptate antibody alone was added to cells free of stimulation with compound and the mixture was treated in the same manner (Non-treatment). The next day, the wavelengths at 665 nm and 615 nm were measured in the HTRF mode of EnVision (manufactured by PerkinElmer).
The obtained signal was calculated as follows. Ratio=signal (665 nm)/signal (615 nm)×10000, ΔR=Signal(Ratio)−Background fluorescence, and the relative value with respect to ΔR of the compound non-addition group (Non-treatment) as 100% was calculated, and the phosphorylated YAP amount or total YAP amount by each compound was evaluated.

Compound | IC50 (PKACβ; MSA method, 10 steps from 10 μM to 0.3 nM) | inhibition at 0.1 µM (PKACβ; at 100 nM, MSA method) | phosphorylated YAP (%) ([1]; 2D condition) | total YAP (%) ([1]; 2D condition) | phosphorylated YAP (%) ([1]; 3D condition) | total YAP (%) ([1]; 3D condition) | inhibition at 0.1 µM (PKACβ)
CC/C(=N\NC(=O)C(C)Nc1ccccc1)c1ccc(O)c(C)c1O (stereo not drawn) [k-1:B-1] | 29.3 nM | 80.1% | 14% | 89% | 31% | 99% | –
CC/C(=N\NC(=O)CNc1cccc(O)c1)c1ccc(O)c(C)c1O [k-1:D-1] | – | – | – | – | – | – | 98.5%
CCC(=NNC(=O)CNc1ccccc1)c1ccc(O)c(C)c1O [k-1:H-1] | – | 87.7% | 38% | 94% | 80% | 107% | –
CCC(=NNC(=O)C(CC)Nc1ccccc1)c1ccc(O)c(C)c1O (stereo not drawn) [k-1:H-7] | – | 72% | – | – | – | – | –
CC/C(=N\NC(=O)NCc1cccc(O)c1)c1ccc(O)c(C)c1O [k-1:J-1] | – | – | 13% | 86% | 30% | 109% | 89.7%
